According to PubChem BioAssay AID248 (DTP/NCI, 2004):
Toxic doses and inconclusive results are not listed.

System: L1210 leukemia ip in BDF1 mice, survival T/C
Experiment: NCI In Vivo Anticancer Drug Screen. Data for tumor model L1210 Leukemia (intraperitoneal) in B6D2F1 (BDF1) mice
Conditions: endpoint: mean survival time, higher = longer survival
Procedure, shortened: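 Survival endpoint. Drug-treated group vs vehicle group, expressed as T divided by C. Tumor passaged by transplantation.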

[1] = dose: 100.0 mg/kg/injection, schedule: Q01DX009 (ip), vehicle: saline with Tween-80
[2] = dose: 100.0 mg/kg/injection, schedule: Q04DX003 (ip), vehicle: saline
[3] = dose: 200.0 mg/kg/injection, schedule: Q01DX009 (ip), vehicle: saline with Tween-80
[4] = dose: 200.0 mg/kg/injection, schedule: Q04DX003 (ip), vehicle: saline
[5] = dose: 400.0 mg/kg/injection, schedule: Q01DX009 (ip), vehicle: saline with Tween-80
[6] = dose: 400.0 mg/kg/injection, schedule: Q04DX003 (ip), vehicle: saline
[7] = dose: 100.0 mg/kg/injection, schedule: Q01DX001 (ip), vehicle: carboxymethylcellulose (CMC)
[8] = dose: 200.0 mg/kg/injection, schedule: Q01DX001 (ip), vehicle: carboxymethylcellulose (CMC)
[9] = dose: 400.0 mg/kg/injection, schedule: Q01DX001 (ip), vehicle: carboxymethylcellulose (CMC)
[10] = dose: 100.0 mg/kg/injection, schedule: Q01DX009 (ip), vehicle: Klucel (hydroxypropylcellulose) (HPC)
[11] = dose: 200.0 mg/kg/injection, schedule: Q01DX009 (ip), vehicle: Klucel (hydroxypropylcellulose) (HPC)
[12] = dose: 400.0 mg/kg/injection, schedule: Q01DX009 (ip), vehicle: Klucel (hydroxypropylcellulose) (HPC)
[13] = dose: 100.0 mg/kg/injection, schedule: Q04DX003 (ip), vehicle: Klucel (hydroxypropylcellulose) (HPC)
[14] = dose: 200.0 mg/kg/injection, schedule: Q04DX003 (ip), vehicle: Klucel (hydroxypropylcellulose) (HPC)
[15] = dose: 400.0 mg/kg/injection, schedule: Q04DX003 (ip), vehicle: Klucel (hydroxypropylcellulose) (HPC)
[16] = dose: 100.0 mg/kg/injection, schedule: Q04DX003 (ip), vehicle: saline with Tween-80
[17] = dose: 200.0 mg/kg/injection, schedule: Q04DX003 (ip), vehicle: saline with Tween-80

## O=C(NCCCl)N1C(=O)NC(=O)C1(c1ccccc1)c1ccccc1
[1]
  T/C: 96 % of control
[2]
  T/C: 88 % of control
[3]
  T/C: 98 % of control
[4]
  T/C: 91 % of control
[5]
  T/C: 96 % of control
[6]
  T/C: 98 % of control

## COc1ccc(N2C(=O)CCC2=S)cc1
dose: 50.0 mg/kg/injection, schedule: Q01DX001 (ip), vehicle: carboxymethylcellulose (CMC)
  T/C: 104 % of control
[7]
  T/C: 96 % of control
[8]
  T/C: 102 % of control
[9]
  T/C: 102 % of control

## CCOC(=O)C(=CNc1ccccc1)C(=O)OCC
[10]
  T/C: 97 % of control
[11]
  T/C: 90 % of control
[12]
  T/C: 97 % of control

## BrC1C2CCC(CC2)C1Br (stereo not given)
[10]
  T/C: 92 % of control
[13]
  T/C: 100 % of control
[11]
  T/C: 92 % of control
[14]
  T/C: 100 % of control
[12]
  T/C: 94 % of control
[15]
  T/C: 96 % of control

## Cc1ccc(C2(C#N)CCCCC2)cc1
[1]
  T/C: 96 % of control
[16]
  T/C: 108 % of control
[3]
  T/C: 110 % of control
[17]
  T/C: 98 % of control
[5]
  T/C: 110 % of control
dose: 400.0 mg/kg/injection, schedule: Q04DX003 (ip), vehicle: saline with Tween-80
  T/C: 101 % of control

## C[N+]1(CCNC2=CC(=O)C(NCC[N+]3(C)CCOCC3)=CC2=O)CCOCC1
dose: 5.0 mg/kg/injection, schedule: Q01DX001 (ip), vehicle: saline
  T/C: 103 % of control
dose: 10.0 mg/kg/injection, schedule: Q01DX001 (ip), vehicle: saline
  T/C: 101 % of control
dose: 20.0 mg/kg/injection, schedule: Q01DX001 (ip), vehicle: saline
  T/C: 101 % of control
dose: 40.0 mg/kg/injection, schedule: Q01DX001 (ip), vehicle: saline
  T/C: 101 % of control
dose: 80.0 mg/kg/injection, schedule: Q01DX001 (ip), vehicle: saline
  T/C: 97 % of control

## C=CCCCCCCCCC(=O)NCCCC(OCC)OCC
[2]
  T/C: 106 % of control
[4]
  T/C: 95 % of control
[6]
  T/C: 95 % of control

## CCOC(=O)c1nc[nH]c1N=[N+]=[N-]
dose: 100.0 mg/kg/injection, schedule: Q01DX001 (ip), vehicle: other
  T/C: 106 % of control
dose: 200.0 mg/kg/injection, schedule: Q01DX001 (ip), vehicle: other
  T/C: 97 % of control
dose: 400.0 mg/kg/injection, schedule: Q01DX001 (ip), vehicle: other
  T/C: 95 % of control

## COC1CC(OC(=O)c2ccc([N+](=O)[O-])cc2)C(OC(=O)c2ccc([N+](=O)[O-])cc2)C(C)O1 (stereo not given)
[7]
  T/C: 93 % of control
[8]
  T/C: 102 % of control
[9]
  T/C: 88 % of control

## CSc1nc(Cl)c(Cl)c(SC)n1 (tested in a mixture with another compound)
dose: 50.0 mg/kg/injection, schedule: Q01DX009 (ip), vehicle: Klucel (hydroxypropylcellulose) (HPC)
  T/C: 87 % of control
[10]
  T/C: 87 % of control

## CNc1nc(Nc2ccc(C3=NCCN3)cc2)nc(Nc2ccc(C3=NCCN3)cc2)n1
dose: 1.25 mg/kg/injection, schedule: Q01DX015 (ip), vehicle: water
  T/C: 96 % of control
dose: 2.5 mg/kg/injection, schedule: Q01DX015 (ip), vehicle: water
  T/C: 96 % of control
dose: 5.0 mg/kg/injection, schedule: Q01DX015 (ip), vehicle: water
  T/C: 105 % of control
dose: 7.5 mg/kg/injection, schedule: Q01DX015 (ip), vehicle: water
  T/C: 152 % of control
dose: 10.0 mg/kg/injection, schedule: Q01DX015 (ip), vehicle: water
  T/C: 102 % of control
dose: 12.5 mg/kg/injection, schedule: Q01DX001 (ip), vehicle: water
  T/C: 105 % of control
dose: 13.3 mg/kg/injection, schedule: Q01DX Z (ip), vehicle: saline
  T/C: 115 % of control
dose: 15.0 mg/kg/injection, schedule: Q01DX015 (ip), vehicle: water
  T/C: 106 % of control
dose: 20.0 mg/kg/injection, schedule: Q01DX Z (ip), vehicle: saline
  T/C: 121 % of control
dose: 25.0 mg/kg/injection, schedule: Q01DX001 (ip), vehicle: water
  T/C: 103 % of control
dose: 30.0 mg/kg/injection, schedule: Q01DX015 (ip), vehicle: water
  T/C: 121 % of control
dose: 50.0 mg/kg/injection, schedule: Q01DX001 (ip), vehicle: water
  T/C: 100 % of control
dose: 60.0 mg/kg/injection, schedule: Q01DX Z (oral), vehicle: carboxymethylcellulose (CMC)
  T/C: 105 % of control
dose: 75.0 mg/kg/injection, schedule: Q01DX001 (ip), vehicle: water
  T/C: 115 % of control
dose: 120.0 mg/kg/injection, schedule: Q01DX Z (oral), vehicle: carboxymethylcellulose (CMC)
  T/C: 109 % of control
dose: 240.0 mg/kg/injection, schedule: Q01DX Z (oral), vehicle: carboxymethylcellulose (CMC)
  T/C: 96 % of control
dose: 480.0 mg/kg/injection, schedule: Q01DX Z (oral), vehicle: carboxymethylcellulose (CMC)
  T/C: 100 % of control

## CNO
[10]
  T/C: 100 % of control
[13]
  T/C: 95 % of control
[11]
  T/C: 97 % of control
[14]
  T/C: 95 % of control
[15]
  T/C: 109 % of control

## CC(=O)c1cc(Cl)ccc1O
dose: 100.0 mg/kg/injection, schedule: Q01DX001 (ip), vehicle: Klucel (hydroxypropylcellulose) (HPC)
  T/C: 104 % of control
dose: 100.0 mg/kg/injection, schedule: Q04DX002 (ip), vehicle: Klucel (hydroxypropylcellulose) (HPC)
  T/C: 100 % of control
dose: 200.0 mg/kg/injection, schedule: Q01DX001 (ip), vehicle: Klucel (hydroxypropylcellulose) (HPC)
  T/C: 106 % of control
dose: 200.0 mg/kg/injection, schedule: Q04DX002 (ip), vehicle: Klucel (hydroxypropylcellulose) (HPC)
  T/C: 96 % of control
dose: 400.0 mg/kg/injection, schedule: Q01DX001 (ip), vehicle: Klucel (hydroxypropylcellulose) (HPC)
  T/C: 97 % of control
dose: 400.0 mg/kg/injection, schedule: Q04DX002 (ip), vehicle: Klucel (hydroxypropylcellulose) (HPC)
  T/C: 89 % of control

## CCCCOC(=Nc1ccccc1)N(c1ccccc1)c1ccccc1
dose: 222.0 mg/kg/injection, schedule: Q01DX Z (ip), vehicle: methylcellulose (MC)
  T/C: 88 % of control
dose: 333.0 mg/kg/injection, schedule: Q01DX Z (ip), vehicle: methylcellulose (MC)
  T/C: 94 % of control
dose: 500.0 mg/kg/injection, schedule: Q01DX Z (ip), vehicle: methylcellulose (MC)
  T/C: 98 % of control

## COc1cc(CCl)cc(OC)c1OC
[10]
  T/C: 95 % of control
[13]
  T/C: 93 % of control
[11]
  T/C: 90 % of control
[14]
  T/C: 95 % of control
[12]
  T/C: 88 % of control
[15]
  T/C: 97 % of control

## CN1CCC2CCCCC2C1Cc1ccc(Oc2ccc(CC3C4CCCCC4CCN3C)cc2)cc1 (stereo not given)
dose: 0.78 mg/kg/injection, schedule: Q04DX002 (ip), vehicle: Klucel (hydroxypropylcellulose) (HPC)
  T/C: 91 % of control
dose: 1.56 mg/kg/injection, schedule: Q04DX002 (ip), vehicle: Klucel (hydroxypropylcellulose) (HPC)
  T/C: 88 % of control
dose: 3.12 mg/kg/injection, schedule: Q04DX002 (ip), vehicle: Klucel (hydroxypropylcellulose) (HPC)
  T/C: 91 % of control

## O=C1c2cc(Cl)ccc2-c2ccc([N+](=O)[O-])cc21
[13]
  T/C: 100 % of control
[14]
  T/C: 97 % of control
[15]
  T/C: 106 % of control

## O=C(c1ccc(-c2ccccc2)cc1)C(Br)CCBr (stereo not given)
[16]
  T/C: 106 % of control
[17]
  T/C: 93 % of control

## CC(CS(=O)(=O)O)N1CCOCC1 (stereo not given)
dose: 100.0 mg/kg/injection, schedule: Q01DX009 (ip), vehicle: saline
  T/C: 95 % of control
[2]
  T/C: 100 % of control
dose: 200.0 mg/kg/injection, schedule: Q01DX009 (ip), vehicle: saline
  T/C: 98 % of control
[4]
  T/C: 101 % of control
dose: 400.0 mg/kg/injection, schedule: Q01DX009 (ip), vehicle: saline
  T/C: 102 % of control
[6]
  T/C: 97 % of control

## COc1cccc(NC(=O)c2cccc(C(=O)Nc3cccc(OC)c3)c2)c1
[10]
  T/C: 94 % of control
[11]
  T/C: 91 % of control
[12]
  T/C: 86 % of control
